Molecules are shown by their SMILES.

19 compounds from the SangsterLogP compilation can be followed below.

Regarding `Cc1[nH]c2ccccc2c1C`, the log partition coefficient (logP) (commonly a log measure of how a compound divides between an organic and an aqueous phase) worked out at 2.51.
As to `CC(C)(C)C1CCCCC1`, the logP amounted to 5.04.
`Oc1ccc(O)c2ccccc12` showed a logP of 2.24.
Consider `CC1CCCCC1`, for which the logP was 4.17.
As to `CCc1ccccc1O`, the logP was 2.36.
The compound `Oc1cccc2c1CCCC2` gave a logP of 2.87.
As for `OCc1c2ccccc2cc2ccccc12`, the figure is 3.04; as for `CCc1ccccc1CC`, 4.1; as for `CCCCCCCCCCCCc1ccc(O)cc1O`, 5.32.
`C/C=C/CCCCC` came in with a logP of 4.51.
As for `OCc1ccc2ccccc2c1`, the figure is 2.42; as for `O=Cc1ccc(Cl)cc1`, 2.34.
Consider `CCCCCCCc1ccccc1`, for which the logP turned out to be 5.37.
`CCc1cccc(CC)c1` returned a log partition coefficient (logP) of 4.16.
In the case of `CCC1CCCCC1`, the lipophilicity (logP) was 4.56.
Take `CCCCCCc1ccc(O)cc1O`: the logP turned out to be 3.07.
As to `CCn1c2ccccc2c2ccccc21`, the logP amounted to 3.97.
`CCc1ccc(CC)cc1` had a lipophilicity (logP) of 4.22.
The same measure for `Cc1cccc2[nH]ccc12`: 2.54.
